In one data set the test system is CYP3A. The note with it: in vitro, cited from earlier work.
In data set [1] the target is T1, CYP3A4 (Homo sapiens, UniProt P08684). The note with it: background statement; cited from earlier work.
Data set [2] concerns S. pneumoniae ATCC 49619 (CLSI QC strain). The data set is described as follows: Minimum inhibitory concentration (MIC), broth microdilution, QC strain. The format is cell-based, Streptococcus pneumoniae. The note with it: MIC in duplicates. The protocol:
(§1) Protocols for Determining Minimum Inhibitory Concentration (MIC) of Test Compounds Against Streptococcus Pneumoniae Strains
(§2) The test strains are revived from frozen stock on blood agar plates and incubated at 35±2° C. for 18-20 hours in 5% CO2. Colonies are directly suspended from an overnight grown agar culture in CAMHB/saline and optical density adjusted to 0.5 McFarland turbidity standard (1-2×10^8 cfu/mL). Adjusted cultures are further diluted 1:100 using CAMHB such that after inoculation each well finally contains ˜5×10^5 cfu/mL. For broth dilution testing of Streptococcus species, CAMHB is supplemented with 2.5-5% v/v LHB. Colony counts of inoculum suspension is estimated by ten-fold serial dilutions and plating each dilution on agar plate. After incubation, the plates are observed for growth and microbial counts determined.
(§3) Compounds are weighed and dissolved in water/DMSO/other solvent to yield 1 mg/mL stock solution. Serial two-fold dilutions of the test compounds and reference antibiotics are prepared. 50 μL of the diluted drug solutions are dispensed in wells of microtiter trays (96 well).
(§4) To each of the wells of the microtiter tray, 50 μL of the diluted organism are inoculated to obtain a final inoculum density of ˜5×10^5 cfu/mL. Broth control, compound control and organism control wells are set up.
(§5) MIC testing are done in duplicates
(§6) MIC is defined as the lowest concentration of an antimicrobial agent that prevents visible growth of a microorganism in broth dilution susceptibility test.
(§7) After incubation period, growth of organism in the wells are detected by unaided eye facilitated by a viewing device. The amount of growth in the drug-containing wells are compared with the amount of growth in the organism-control wells.

Data set [3] deals with S. pneumoniae AUCC479, macrolide & penicillin sensitive. Put plainly: Minimum inhibitory concentration (MIC), broth microdilution, AUCC479. Type of data set: cell-based, Streptococcus pneumoniae. The protocol:
as §1, §2, §3, §4, §5, §6, §7

Data set [4] concerns S. pneumoniae AUCC488, macrolide & penicillin resistant. The data set is described as follows: Minimum inhibitory concentration (MIC), broth microdilution, AUCC488. Type of data set: cell-based, Streptococcus pneumoniae. As to the method: as §1, §2, §3, §4, §5, §6, §7
Background: Dilution methods test growth across graded concentrations, often in twofold steps.

The subject of data set [5] is S. pneumoniae AUCC489, macrolide & penicillin resistant. Put plainly: Minimum inhibitory concentration (MIC), broth microdilution, AUCC489. Type of data set: cell-based, Streptococcus pneumoniae. The protocol: as §1, §2, §3, §4, §5, §6, §7
Data set [6] concerns S. pneumoniae AUCC483, macrolide resistant & penicillin sensitive. The data set is described as follows: Minimum inhibitory concentration (MIC), broth microdilution, AUCC483. The format is cell-based, Streptococcus pneumoniae. As to the method:
as §1, §2, §3, §4, §5, §6, §7

The target of a further data set is P-gp (Homo sapiens, UniProt P08183). The note with it: background statement; cited from earlier work.
Data set [7] deals with T1, CYP3A4. The data set is described as follows: biochemical.
Protocol: (§8) Cytochrome P4503A4 Inhibition Assay for Determining IC50
(§9) The potential of the compound to inhibit CYP 3A4 was tested by the LC-MS/MS based probe substrate method using human liver microsomes. Midazolam or testosterone, which are metabolized to hydroxymidazolam or hydroxytestosterone by CYP 3A4, were the probe substrates used. […] NADPH was added as the cofactor. […] After incubation for ten minutes, the amount of 1-hydroxymidazolam or 6β-hydroxyltestosterone formed was determined by LC-MS/MS method as a measure of enzyme activity. Percent inhibition of enzyme activity was calculated based on the amount of metabolites (1-hydroxymidazolam or 6β-hydroxyltestosterone) formed for each sample relative to the basal control and plotted in a curve versus the compound concentration to obtain the IC50.
Data set [8] is described as follows: Oral bioavailability and tissue distribution after a single oral treatment. The format is in vivo.
For data set [9], the system named is macrolide-resistant S. pneumoniae strains. Put plainly: Mouse lung infection models. The format is in vivo.
Data set [10] deals with T1, CYP3A4. Put plainly: Cytochrome P4503A4 inhibition assay, human liver microsomes, LC-MS/MS probe substrate method. The note with it: for IC50: human liver microsomes 0.1 mg/mL, 10 min; for CYP3A4 inhibition in comparison with solithromycin and ketoconazole: summary of Table 1.
Protocol: as §8, §9
Setting [11] is: read-out: IC50 CYP3A4 (midazolam), 5 μM midazolam.
Where [12] appears, read: read-out: IC50 CYP3A4 (testosterone), 50 μM testosterone.

The term IC50 denotes the concentration needed to halve the response being measured. One may read the MIC as the lowest concentration that inhibits growth of the organism.

≈ marks a conversion by molar mass, not a printed value. Where “and” joins values, the source holds several entries; their conditions need not be identical. Equal entries are not always repeated.

T1 sequence (P08684 whole entry): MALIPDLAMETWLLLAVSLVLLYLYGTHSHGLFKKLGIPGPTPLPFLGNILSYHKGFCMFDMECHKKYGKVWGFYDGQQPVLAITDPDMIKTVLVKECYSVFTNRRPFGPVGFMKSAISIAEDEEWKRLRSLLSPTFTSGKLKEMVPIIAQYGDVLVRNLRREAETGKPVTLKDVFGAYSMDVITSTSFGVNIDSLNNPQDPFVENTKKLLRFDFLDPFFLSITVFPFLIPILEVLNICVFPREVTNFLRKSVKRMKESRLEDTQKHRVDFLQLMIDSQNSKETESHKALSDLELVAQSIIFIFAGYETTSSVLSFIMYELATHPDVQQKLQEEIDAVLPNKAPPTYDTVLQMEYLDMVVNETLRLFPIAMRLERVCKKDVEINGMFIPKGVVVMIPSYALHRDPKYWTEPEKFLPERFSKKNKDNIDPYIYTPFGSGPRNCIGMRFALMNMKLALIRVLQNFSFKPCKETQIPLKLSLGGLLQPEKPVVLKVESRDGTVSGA
Chain of P-gp (P08183 whole entry): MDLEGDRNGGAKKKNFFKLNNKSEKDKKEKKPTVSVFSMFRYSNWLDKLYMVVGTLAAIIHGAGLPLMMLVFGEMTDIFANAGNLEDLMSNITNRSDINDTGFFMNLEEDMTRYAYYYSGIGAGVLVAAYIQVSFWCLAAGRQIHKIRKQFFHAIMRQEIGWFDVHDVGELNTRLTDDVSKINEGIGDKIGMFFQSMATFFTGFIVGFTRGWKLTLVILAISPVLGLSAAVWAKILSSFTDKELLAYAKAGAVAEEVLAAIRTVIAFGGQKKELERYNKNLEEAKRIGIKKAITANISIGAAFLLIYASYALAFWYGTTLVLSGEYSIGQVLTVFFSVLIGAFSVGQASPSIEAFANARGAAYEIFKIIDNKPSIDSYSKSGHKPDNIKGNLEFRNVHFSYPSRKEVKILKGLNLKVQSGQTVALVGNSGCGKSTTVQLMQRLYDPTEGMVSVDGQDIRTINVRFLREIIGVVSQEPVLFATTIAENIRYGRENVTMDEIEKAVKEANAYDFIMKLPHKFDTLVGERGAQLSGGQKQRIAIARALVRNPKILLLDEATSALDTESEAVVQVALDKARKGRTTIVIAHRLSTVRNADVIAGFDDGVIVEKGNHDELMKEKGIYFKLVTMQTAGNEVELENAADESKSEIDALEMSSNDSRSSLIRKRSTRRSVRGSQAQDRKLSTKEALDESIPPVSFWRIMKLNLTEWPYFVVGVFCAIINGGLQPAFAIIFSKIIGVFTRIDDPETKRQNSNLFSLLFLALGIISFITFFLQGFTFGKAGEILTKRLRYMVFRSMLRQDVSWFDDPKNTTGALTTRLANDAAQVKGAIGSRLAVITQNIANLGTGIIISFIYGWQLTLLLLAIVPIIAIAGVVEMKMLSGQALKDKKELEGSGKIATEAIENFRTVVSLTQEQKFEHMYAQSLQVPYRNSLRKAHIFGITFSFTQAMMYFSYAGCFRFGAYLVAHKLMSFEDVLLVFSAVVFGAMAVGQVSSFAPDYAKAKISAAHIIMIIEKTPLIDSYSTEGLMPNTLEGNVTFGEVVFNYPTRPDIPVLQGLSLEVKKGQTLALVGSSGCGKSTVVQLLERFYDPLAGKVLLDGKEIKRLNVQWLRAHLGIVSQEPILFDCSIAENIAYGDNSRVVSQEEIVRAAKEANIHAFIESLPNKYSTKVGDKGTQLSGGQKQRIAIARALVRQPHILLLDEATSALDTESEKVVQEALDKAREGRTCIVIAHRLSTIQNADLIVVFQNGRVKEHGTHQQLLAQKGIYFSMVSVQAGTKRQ

`CC[C@H]1OC(=O)[C@H](C)C(=O)[C@H](C)[C@@H](O[C@@H]2O[C@H](C)C[C@H](N(C)C)[C@H]2O)[C@](C)(OC/C=C/c2cnc3ccccc3c2)C[C@@H](C)C(=O)[C@H](C)[C@H]2NC(=O)O[C@@]21C` [cethromycin]: the IC50 in the data set on CYP3A (Katz et al / FDA briefing document, read-out: IC50 of CYP3A-dependent nifedipine oxidation) is 0.63 µM. For the same molecule, in the data set on CYP3A (same value in ng/mL), the “IC50 of CYP3A-dependent nifedipine oxidation” value is 0.4825 µg/mL. The “inhibition of CYP3A4” value at CYP3A4 [1] is “strong inhibition”.
For the molecule `CC[C@H]1OC(=O)[C@@](C)(F)C(=O)[C@H](C)[C@@H](O[C@@H]2O[C@H](C)C[C@H](N(C)C)[C@H]2O)[C@](C)(OC)C[C@@H](C)C(=O)[C@H](C)[C@H]2N(CCCCn3cc(-c4cccc(N)c4)nn3)C(=O)O[C@]12C` [solithromycin, reference compound], the MIC in [2] (Streptococcus pneumoniae, ATCC49619 QC strain, read-out: MIC Strep. Pneumoniae ATCC49619 QC strain) is 0.004 to 0.015 µg/mL (≈ 4.73 to 17.8 nM). For the same molecule, the “MIC Strep. Pneumoniae AUCC 479 penS, macS” value in data set [3] lay in the range of 0.004 to 0.015 µg/mL. The “MIC Strep. Pneumoniae AUCC 488 penR, macR M or iMLS” value (“MIC Strep. Pneumoniae AUCC 488 penR” for short) in [4] lay in the range of 0.06 to 0.25 µg/mL. The “MIC Strep. Pneumoniae AUCC 489 penR, macR cMLS” value in data set [5] lay in the range of 0.004 to 0.008 µg/mL. Besides, the “MIC Strep. Pneumoniae AUCC 483 penS, macR cMLS” value in data set [6] lay within 0.008 to 0.015 µg/mL. Besides, the “inhibition of CYP3A4” value on CYP3A4 [1] is on record as “strong inhibitor”. In addition, the “inhibition of P-gp” value on P-gp is “moderate inhibitor”. Further, at CYP3A4 [7], the IC50 was 0.4 µM and 1.49 µM.
As to “(3aS,4R,7R,9R,10R,11R,13R,15R,15aR)-10-{[(2S,3R,4S,6R)-4-(dimethylamino)3-hydroxy-6-methyloxan-2-yl]oxy}-1-[3-(dimethylamino)propyl]-4-ethyl-3a,7,9,11,13,15-hexamethyl-11-{[(2E)-3-(quinolin-3-yl)prop-2-en-1-yl]oxy}tetradecahydro-1H-oxacyclotetradeca[4,3-d][1,3]oxazole-2,6,8,14-tetrone [Compound 13B]”, the “MIC Strep. Pneumoniae ATCC49619 QC strain” value in [2] lay in the range of 0.015 to 0.03 µg/mL. Further, the “MIC Strep. Pneumoniae AUCC 479 penS, macS” value in data set [3] lay in the range of 0.008 to 0.015 µg/mL. In addition, in data set [4], the “MIC Strep. Pneumoniae AUCC 488 penR” value is 0.12 to 0.25 µg/mL. Further, the “MIC Strep. Pneumoniae AUCC 489 penR, macR cMLS” value in data set [5] is 0.12 to 0.25 µg/mL. Further, the “MIC Strep. Pneumoniae AUCC 483 penS, macR cMLS” value in data set [6] was 0.12 to 0.25 µg/mL. The “time drug level in the lungs remained elevated” value in data set [8] (lungs, after a single oral treatment) is “at least 8 hours”. Besides, in data set [8] (oral), the oral bioavailability entry is reported as “excellent” and the tissue distribution result was “excellent”. In addition, in [9], the “efficacy in mouse lung infection models” value is recorded as “demonstrated efficacy”. For the same molecule, the IC50 at CYP3A4 [10] (setting [11]) amounted to 6.4 µM. Further, the “CYP3A4 inhibition in comparison with solithromycin and ketoconazole” value (“CYP3A4 inhibition in comparison” for short) at CYP3A4 [10] is recorded as “lower IC50 inhibition of CYP3A4 inhibition”.
For “(3aS,4R,7R,9R,10R,11R,13R,15R,15aR)-10-{[(2S,3R,4S,6R)-4-(dimethylamino)-3-hydroxy-6-methyloxan-2-yl]oxy}-4-ethyl-3a,7,9,11,13,15-hexamethyl-1-[2-(pyrrolidin-1-yl)ethyl]-11-{[(2E)-3-(quinolin-3-yl)prop-2-en-1-yl]oxy}-tetradecahydro-1H-oxacyclotetradeca[4,3-d][1,3]oxazole-2,6,8,14-tetrone [Compound 13I]”, the “MIC Strep. Pneumoniae ATCC49619 QC strain” value in data set [2] was 0.03 to 0.06 µg/mL. Also, in data set [3], the “MIC Strep. Pneumoniae AUCC 479 penS, macS” value fell in the range of 0.015 to 0.03 µg/mL. In addition, the “MIC Strep. Pneumoniae AUCC 488 penR” value in data set [4] is 0.25 to 0.5 µg/mL. Besides, the “MIC Strep. Pneumoniae AUCC 489 penR, macR cMLS” value in data set [5] is 0.25 to 1 µg/mL. The “MIC Strep. Pneumoniae AUCC 483 penS, macR cMLS” value in [6] was 0.25 to 1 µg/mL. Moreover, the IC50 on CYP3A4 [10] (setting [11]) is 2.1 µM. Also, on CYP3A4 [10], the “CYP3A4 inhibition in comparison” value is recorded as “lower IC50 inhibition of CYP3A4 inhibition”.
As to “(3aS,4R,7R,9R,10R,11R,13R,15R,15aR)-10-{[(2S,3R,4S,6R)-4-(dimethylamino)-3-hydroxy-6-methyloxan-2-yl]oxy}-4-ethyl-3a,7,9,11,13,15-hexamethyl-1-[3-(morpholin-4-yl)propyl]-11-{[(2E)-3-(quinolin-3-yl)prop-2-en-1-yl]oxy}-tetradecahydro-1H-oxacyclotetradeca[4,3-d][1,3]oxazole-2,6,8,14-tetrone [Compound 13J]”, the “MIC Strep. Pneumoniae ATCC49619 QC strain” value in [2] lay in the range of 0.06 to 0.12 µg/mL. The “MIC Strep. Pneumoniae AUCC 479 penS, macS” value in data set [3] lay in the range of 0.03 to 0.06 µg/mL. The “MIC Strep. Pneumoniae AUCC 488 penR” value in [4] is 1 µg/mL. Besides, the “MIC Strep. Pneumoniae AUCC 489 penR, macR cMLS” value in data set [5] fell in the range of 1 to 2.0 µg/mL. Further, the “MIC Strep. Pneumoniae AUCC 483 penS, macR cMLS” value in data set [6] was 0.5 to 2 µg/mL. Besides, the IC50 at CYP3A4 [10] (setting [11]) is 5.9 µM. The “CYP3A4 inhibition in comparison” value on CYP3A4 [10] is “lower IC50 inhibition of CYP3A4 inhibition”.
For “(3aS,4R,7R,9R,10R,11R,13R,15R,15aR)-10-{[(2S,3R,4S,6R)-4-(dimethylamino)-3-hydroxy-6-methyloxan-2-yl]oxy}-4-ethyl-3a,7,9,11,13,15-hexamethyl-1-{2-[(2R)-1-methylpyrrolidin-2-yl]ethyl}-11-{[(2E)-3-(quinolin-3-yl)prop-2-en-1-yl]oxy}-tetradecahydro-1H-oxacyclotetradeca[4,3-d][1,3]oxazole-2,6,8,14-tetrone [Compound 13P]”, the “MIC Strep. Pneumoniae ATCC49619 QC strain” value in data set [2] is 0.03 to 0.06 µg/mL. The “MIC Strep. Pneumoniae AUCC 479 penS, macS” value in [3] lay in the range of 0.015 to 0.03 µg/mL. Also, the “MIC Strep. Pneumoniae AUCC 488 penR” value in data set [4] lay within 0.5 to 1 µg/mL. Also, the “MIC Strep. Pneumoniae AUCC 489 penR, macR cMLS” value in data set [5] lay in the range of 0.12 to 0.25 µg/mL. Also, in data set [6], the “MIC Strep. Pneumoniae AUCC 483 penS, macR cMLS” value is 0.06 to 0.12 µg/mL. In addition, at CYP3A4 [10] (setting [12]), the IC50 was 6.3 µM. For the same molecule, at CYP3A4 [10], the “CYP3A4 inhibition in comparison” value is “lower IC50 inhibition of CYP3A4 inhibition”.
For the molecule “(3aS,4R,7R,9R,10R,11R,13R,15R,15aR)-10-{[(2S,3R,4S,6R)-4-(dimethylamino)-3-hydroxy-6-methyloxan-2-yl]oxy}-4-ethyl-3a,7,9,11,13,15-hexamethyl-1-{2-[(2S)-1-methylpyrrolidin-2-yl]ethyl}-11-{[(2E)-3-(quinolin-3-yl)prop-2-en-1-yl]oxy}-tetradecahydro-1H-oxacyclotetradeca[4,3-d][1,3]oxazole-2,6,8,14-tetrone [Compound 13Q]”, the “MIC Strep. Pneumoniae ATCC49619 QC strain” value in data set [2] lay within 0.03 to 0.06 µg/mL. The “MIC Strep. Pneumoniae AUCC 479 penS, macS” value in [3] fell in the range of 0.015 to 0.03 µg/mL. Also, the “MIC Strep. Pneumoniae AUCC 488 penR” value in data set [4] lay within 0.5 to 1 µg/mL. Besides, in data set [5], the “MIC Strep. Pneumoniae AUCC 489 penR, macR cMLS” value was 0.12 to 0.25 µg/mL. The “MIC Strep. Pneumoniae AUCC 483 penS, macR cMLS” value in data set [6] was in the range of 0.12 to 0.25 µg/mL. Further, the IC50 at CYP3A4 [10] (setting [12]) is 4.8 µM. For the same molecule, the “CYP3A4 inhibition in comparison” value at CYP3A4 [10] is listed as “lower IC50 inhibition of CYP3A4 inhibition”.

(Values after patent US10717757B2, “Ketolides having antibacterial activity” (BIOPHARMATI SA, priority 2016, dated 2020).)
